Test results: US7977466B2, “C-glycoside derivatives and salts thereof” (Astellas Pharma Inc., priority 2003, dated 2011)

Legend:
[1] = biological target: T1, human SGLT2 (Homo sapiens, UniProt P31639); assay: Inhibition of human Na+-glucose cotransporter (human SGLT2) activity: methyl-α-D-glucopyranoside intake in CHO cells stably expressing human SGLT2; assay type: cell-based; conditions: CHO cell stably expressing human SGLT2; methyl-α-D-(U-14C)glucopyranoside intake, 37° C., two hours
T1 construct: expressed in transfected cells; host or cells: CHO-K1
T1 sequence (P31639 1-672): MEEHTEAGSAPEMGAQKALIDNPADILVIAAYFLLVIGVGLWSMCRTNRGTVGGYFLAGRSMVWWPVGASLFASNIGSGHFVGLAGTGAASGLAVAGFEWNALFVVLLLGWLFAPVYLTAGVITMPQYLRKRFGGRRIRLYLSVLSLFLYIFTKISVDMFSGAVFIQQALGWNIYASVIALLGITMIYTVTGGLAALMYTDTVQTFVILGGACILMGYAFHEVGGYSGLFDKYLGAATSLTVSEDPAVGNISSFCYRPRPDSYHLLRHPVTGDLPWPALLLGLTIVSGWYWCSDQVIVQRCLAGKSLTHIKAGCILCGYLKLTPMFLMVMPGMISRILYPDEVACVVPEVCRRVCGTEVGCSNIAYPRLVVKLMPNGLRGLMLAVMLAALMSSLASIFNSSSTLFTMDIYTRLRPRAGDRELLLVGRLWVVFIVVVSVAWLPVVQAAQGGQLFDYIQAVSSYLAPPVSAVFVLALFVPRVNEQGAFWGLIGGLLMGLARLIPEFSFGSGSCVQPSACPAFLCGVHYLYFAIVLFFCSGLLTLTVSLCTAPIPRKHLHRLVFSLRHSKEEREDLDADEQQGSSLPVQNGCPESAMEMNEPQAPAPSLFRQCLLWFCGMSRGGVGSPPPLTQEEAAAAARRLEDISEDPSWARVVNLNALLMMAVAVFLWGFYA
Source text: Inhibition of Human Na^+-Glucose Cotransporter (Human SGLT2) Activity
(1) Preparation of Human SGLT 2 Expression Vector
First, single-strand cDNA was reversely transcripted from total RNA originating from the human kidney (manufactured by BD Biosciences Clontech) using a Superscript II (manufactured by Invitrogen Corporation) and a random hexamer. Second, using the cDNA as a template, a DNA fragment encoding a human SGLT2 (Wells, R. G. et al., Am. J. Physiol., 1992, 263(3) F459) was amplified by the PCR reaction using Pyrobest DNA polymerase (manufactured by Takara Bio Inc.). That is, a Hind III site and an EcoRI site were inserted into the 5′ side and the 3′ side of the DNA fragment, respectively by using primers.
The amplified fragment was cloned into a pCR2.1-Topo vector using a Topo TA Cloning Kit (manufactured by Invitrogen Corporation) and the cloned vector was transfected into a competent cell of Escherichia coli JM109. Ampicillin-resistant clones were cultured in a LB medium containing ampicillin (100 mg/l). A plasmid was purified from the cultured Escherichia coli using the method of Hanahan (see Maniatis et al., “Molecular Cloning”). A DNA fragment for encoding a human SGLT2 was obtained by the Hind III/EcoRI digestion of the plasmid and ligated and cloned to the same site of the expression vector pcDNA 3.1 (manufactured by Invitrogen Corporation) using a DNA ligase (manufactured by Roche Diagnostics). The ligated clone was transfected into a competent cell of Escherichia coli JM109 in the same manner as described above and cultured in a LB medium containing ampicillin, and a human SGLT2 expression vector was obtained using the method of Hanahan.
(2) Preparation of Human SGLT2 Expressed Cells
The human SGLT2 expression vector was transfected into a CHO-K1 cell using Lipofectamine2000 (manufactured by Invitrogen Corporation). The cell was cultured in a Ham's F12 medium (manufactured by Nissui Pharmaceutical Co., Ltd.) containing penicillin (50 IU/ml, manufactured by Dainippon Pharmaceutical Co., Ltd.), streptomycin (50 μg/ml, manufactured by Dainippon Pharmaceutical Co., Ltd.), Geneticin (40 μg/ml, manufactured by Invitrogen Corporation), and 10% fetal bovine serum in the presence of 5% CO2 at 37° C. for two weeks, and Geneticin-resistant clones were obtained.
(3) Inhibition of methyl-α-D-glucopyranoside Intake
After removing the medium of a CHO cell which stably expresses the human SGLT2, a pretreatment buffer solution (buffer solution of pH 7.4 containing choline chloride (140 mM), potassium chloride (2 mM), calcium chloride (1 mM), magnesium chloride (1 mM), 2-[4-(2-hydroxyethyl)1-piperazinyl]ethanesulfonic acid (10 mM), and tris(hydroxymethyl)aminomethane (5 mM)) was added in the amount of 100 μl per well, and incubated at 37° C. for 20 minutes.
11 μl of methyl-α-D-(U-14C)glucopyranoside (manufactured by Amersham Pharmacia Biotech) was mixed with 1,000 μl of a buffer solution for intake containing a test compound (buffer solution of pH 7.4 containing sodium chloride (140 mM), potassium chloride (2 mM), calcium chloride (1 mM), magnesium chloride (1 mM), methyl-α-D-glucopyranoside (50 μM), 2-[4-(2-hydroxy ethyl)1-piperazinyl]ethanesulfonic acid (10 mM), and tris(hydroxymethyl)aminomethane (5 mM)) to prepare a buffer solution for intake. A buffer solution for intake without a test compound was prepared for a control group. A buffer solution for basal intake without a test compound containing choline chloride (140 mM) instead of sodium chloride for measuring the basal intake was prepared as well.
After removing the pretreatment buffer solution, the buffer solution for intake was added (25 μl per well) and incubated at 37° C. for two hours. […]

[2] = system: blood glucose of KK-A^y mice; assay: Hypoglycemic activity confirmation test in fed KK-Ay mice; assay type: in vivo, mouse; conditions: fed male KK-A^y mice, oral, suspension 1 mg/10 ml in 0.5% methylcellulose at 10 ml/kg
Description: Hypoglycemic Activity Confirmation Test
Fed KK-A^y mice (CLEA Japan, Inc., male) were used. The test compound was suspended in 0.5% methylcellulose solution to a concentration of 1 mg/10 ml. The weight of each mouse was measured. The test compound suspension was orally administered to the mice at a dose of 10 ml/kg. Only 0.5% methylcellulose solution was administered to the mice of a control group. Each group consisted of six mice. Blood was collected from the tail vein immediately before administering the compound and one, two, four, and eight hours after administering the compound. The blood glucose value was measured using a glucose CII Test Wako (manufactured by Wako Pure Chemical Industries, Ltd.). The intensity of hypoglycemic activity was determined by calculating the area under the blood glucose value-time curve (AUC) using a trapezoidal method from the glucose value of 0-8 hours after administering the compound and calculating the rate (%) of the decrease in the AUC of the drug-administered group from that of the control group.

Row | IC50 [1] | Compound | Hypoglycemic activity (rate of decrease in blood glucose AUC 0-8 hours versus control group) [2]
1 | 21 nM | OC[C@H]1O[C@@H](c2cc(Cc3cc4ccccc4s3)c(O)cc2O)[C@H](O)[C@@H](O)[C@@H]1O [Example 142] | 
2 | 6.5 nM | CCc1ccc(Cc2nc([C@@H]3O[C@H](CO)[C@@H](O)[C@H](O)[C@H]3O)c(Cl)nc2Cl)cc1 [Example 150] | 
3 | 6.6 nM | OC[C@H]1O[C@@H](c2cc(Cc3cc4ccsc4s3)ccc2O)[C@H](O)[C@@H](O)[C@@H]1O [Example 174] | 

The next lines start with the compound.

Row | Compound | IC50 [1] | Hypoglycemic activity (rate of decrease in blood glucose AUC 0-8 hours versus control group) [2]
4 | COc1ccc(Cc2cc3ccccc3s2)cc1[C@@H]1O[C@H](CO)[C@@H](O)[C@H](O)[C@H]1O [Example 117] | 13 nM | 
5 | COc1ccc([C@@H]2O[C@H](CO)[C@@H](O)[C@H](O)[C@H]2O)cc1Cc1cc2ccccc2s1 [Example 134] | 14 nM | 39%
6 | COc1cc(OC)c([C@@H]2O[C@H](CO)[C@@H](O)[C@H](O)[C@H]2O)cc1Cc1cc2ccccc2s1 [Example 141] | 3.8 nM | 34%
